Where “and” joins values, the source holds several entries; their conditions need not be identical. Equal entries are not always repeated.
Tests used:
[1] = Pharmacokinetic analysis of DAS in quadriceps and liver after oral treatment; type: in vivo, C57Bl/6J mice; details: DAS/HP-β-CD inclusion complex 15 mg/kg in drinking water for 1 week, WT mice
Protocol: A total of 10 sedentary WT male mice C57Bl/6J (Charles River, Italy for Jackson Laboratories), homogeneous for age and body weight (BW) were divided into 2 groups as follows: 4 WT mice vehicle-treated (HP-β-CD 10%) and 6 WT mice treated with DAS/HP-β-CD inclusion complex at the dose of 15 mg/Kg. Drug and vehicle were administered in drinking water for 1 week.
In detail, analysis was performed in quadriceps (Quad) and livers of treated animals. Tissues were individually weighed into a "FastPrep" tube and PBS was added (3:1 ratio). Each tube was placed in the fast prep homogenizer on a predetermined 1min cycle to ensure complete homogenization. 40 µL of each homogenate was aliquoted to a fresh tube and 50 µL of MeOH plus 150 µL of Methanol-containing Internal standard (25 ng/mL Imipramine HCl) was added. Each sample was mixed on a Bioshake for 1 min and then transferred to the freezer at −20 °C for at least two hours prior centrifugation at 2500 × g for 20 min. The supernatants were then transferred to a 96-well plate for sampling by the LC-MS/MS. A Thermo TSQ Quantiva with Thermo Vanquish UHPLC system was used (Thermo Fisher Scientific Inc, Milan, Italy). […] Quantitative analysis was conducted by MRM at 232.06 to 401.11 m/z for DAS inclusion complex and at 86.10 to 193.04 m/z for the internal standard Imipramine. […]

[2] = system: Src-TK; design: method as in PMID 25658745; details: cited from earlier work
[3] = DAS solubility at 25 °C in different environments; type: physicochemical; details: pH 6, Water (ultrapure, pH about 6.0)
Protocol: (§1) The phase solubility study was conducted in accordance with Higuchi and Connors. In detail, DAS was added in excess to an aqueous solution containing HP-β-CD in the appropriate concentration (0–10% w/v) until saturation and the suspensions thus obtained were placed in 4 mL vials with screw cap to avoid changes that are caused by evaporation. The obtained mixtures were vortexed for about 5 min and then placed in a thermostat bath at 25 °C for three days.
(§2) Subsequently, an aliquot of the aqueous phase of each mixture was transferred into a 5 mL glass syringe and filtered through a 0.22 μm cellulose acetate membrane filter (Millipore®, Milan, Italy).
(§3) The obtained filtrate was suitably diluted and subjected to subsequent HPLC analysis for the quantification of the drug. All of the determinations were conducted in triplicate.

[4] = known values, no reference given; cited from earlier work
[5] = Dissolution studies at 37 °C (BIODIS USP III apparatus); type: physicochemical; details: HCl 0.05 M pH 1.2, 37 °C, after approximately 420 min
Protocol: Dissolution experiments were performed at 37 °C using a BIODIS USP III apparatus (Varian Inc., Cary North Carolina, CA, USA), equipped with a rod stirrer maintaining a rotational speed of 100 rpm during the test. Samples of DAS or DAS/HP-β-CD solid complex, equivalent to about 2 mg of DAS, were suspended in the dissolution medium (80 mL of 0.05 M phosphate buffer at pH 7.4 or HCl 0.05 M pH = 1.2). The volume of 80 mL was chosen taking into account the HPLC quantification limit for the determination of DAS.
At predetermined time intervals, 600 µL of suspension were collected and, in order to keep constant the initial volume, 600 μL of the same dissolution medium previously thermostated at the same temperature were added. Samples were subsequently filtered using a 0.22 µm membrane filter (Millipore® cellulose acetate), and the filtrates thus obtained were subjected to HPLC analysis after appropriate dilution. For quantitative analysis the calibration curve previously constructed was used and the dissolution profiles shown correspond to the average of three determinations.

[6] = system: cancer cell growth; details: no reference given; cited from earlier work
[7] = design: method as in PMID 26604135; details: cited from earlier work
[8] = system: C2C12 cells; assay: Cytotoxicity / cell viability (CCK-8); type: cell-based, murine; details: C2C12 myoblasts, 0.1–100 μM, 5 h treatment
Protocol: C2C12 myocytes were cultured in DMEM that was supplemented with 10% fetal bovine serum, 1% penicillin, 1% streptomycin and 1% glutamine and were maintained at 37 °C in 5% CO2/95% air. Cell viability was evaluated by measuring the succinic dehydrogenases activity in the cell suspension using the cell counting Kit-8 (CCK-8) (Sigma Aldrich), which utilizes a highly water-soluble tetrazolium salt and whose detection sensitivity is higher than other tetrazolium salts.
Cells were seeded in 96-well cultures at a density of approximately 4.5 × 10^3 cells per well and then cultured for 16 h. Afterwards, the cells were treated for 5 h with free DAS (in DMSO <0.15% in order to ensure cellular vitality) or complexed with HP-β-CD, but at the same concentration calculated on the basis of the incorporation degree, both being dissolved in DMEM. Following exposure, 10 μL of CCK-8 were added into each well and then the plate was incubated for additional two hours. The absorbance at 450 nm was measured using a spectrophotometer (microplate reader Victor V31420–40; PerkinElmer, Wellesley, Massachusetts). […] The results are expressed as the percentage of the control and presented as the mean ± SD. Each data is from 24–48 replicates (wells) and 6–9 different culture dishes.

[9] = Phase solubility study of DAS with HP-β-CD in water (Higuchi-Connors); type: physicochemical; details: 25 °C
Protocol: as §1, §2, §3
The obtained data were used to determine the apparent stability 1:1 constant (K1:1) of the DAS/HP-β-CD inclusion complex, using the slope of the phase solubility diagrams straight line, as reported by Higuchi and Connors in the following equation:(1) K1:1=slope/S0(1−slope) where S0 represents DAS solubility in absence of cyclodextrin determined in the same way.

Cc1nc(Nc2ncc(C(=O)Nc3c(C)cccc3Cl)s2)cc(N2CCN(CCO)CC2)n1 [DAS, N-(2-chloro-6-methylphenyl)-2-[[6-[4-(2-hydroxyethyl)piperazin-1-yl]-2-methylpyrimidin-4-yl]amino]-1,3-thiazole-5-carboxamide]
DAS levels in quadriceps and livers [1]: Appreciable drugs’ levels were found in quadriceps and livers | inhibition of Src-TK, concentration range [2]: nanomolar range | solubility at 3 days ([3]; read-out: DAS Solubility): 1.33 µM | solubility at 3 days ([3]; read-out: DAS Solubility (mg/mL)): 0.000649 mg/mL | therapeutic plasma levels [4]: low µM values | quantity of drug dissolved [5]: approximately 81% | IC50 values known to inhibit cancer cell growth [6]: nM range | pKa [7]: 10.28 | cytotoxic effect on cell viability [8]: cytotoxic only at high concentrations | 1:1 apparent formation (complexation) constant K1:1 ([9]; DAS with HP-β-CD, from linear portion (0–6% HP-β-CD) of the phase solubility diagram): 922.13 M⁻¹ | solubility at 3 days ([9]; aqueous HP-β-CD solution, aqueous with cosolvent or surfactant or cyclodextrin, thermodynamic from solid, 6% w/v of HP-β-CD, read-out: DAS aqueous solubility in the presence of HP-β-CD): 29 µM and 14 µg/mL

Reference: publication PMC6386909, “Dasatinib/HP-β-CD Inclusion Complex Based Aqueous Formulation as a Promising Tool for the Treatment of Paediatric Neuromuscular Disorders” (International Journal of Molecular Sciences, 2019)
